Article PMC7182988 (Saudi Journal of Biological Sciences, 2020)
“Also recorded” adds a separate entry of the source. Where two headings read alike, the source gives them in different places.

Columns and labels:
human recombinant COX-1 = human recombinant COX-1 (Homo sapiens, UniProt P23219); assay: COX-1; type: biochemical; settings: for COX-1% (percentage of inhibition of COX-1): at 40 μg/mL; for Selectivity IC50 COX-1/IC50 COX-2: defined as IC50 COX-1/IC50 COX-2; for inhibition at 40 µg/mL: read-out: COX-1% (percentage of inhibition of COX-1)
Chain of human recombinant COX-1 (P23219 24-599): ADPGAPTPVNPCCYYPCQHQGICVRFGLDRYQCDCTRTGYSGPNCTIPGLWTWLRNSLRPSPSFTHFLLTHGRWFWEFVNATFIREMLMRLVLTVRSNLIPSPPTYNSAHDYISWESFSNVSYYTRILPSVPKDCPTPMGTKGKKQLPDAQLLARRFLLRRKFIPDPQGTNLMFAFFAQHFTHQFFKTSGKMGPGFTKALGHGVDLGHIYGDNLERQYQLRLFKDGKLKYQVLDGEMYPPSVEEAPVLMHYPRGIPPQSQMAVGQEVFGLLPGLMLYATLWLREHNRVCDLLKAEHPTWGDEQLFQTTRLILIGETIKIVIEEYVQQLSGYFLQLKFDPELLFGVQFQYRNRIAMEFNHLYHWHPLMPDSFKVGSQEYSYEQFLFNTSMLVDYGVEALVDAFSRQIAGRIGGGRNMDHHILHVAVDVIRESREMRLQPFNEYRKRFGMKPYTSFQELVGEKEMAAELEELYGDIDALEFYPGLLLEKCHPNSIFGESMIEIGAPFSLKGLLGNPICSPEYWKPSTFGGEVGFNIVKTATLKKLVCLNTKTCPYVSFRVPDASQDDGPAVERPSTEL

human recombinant COX-2 = biological target: T1, human recombinant COX-2 (Homo sapiens, UniProt P35354); assay: COX-2; type: biochemical; settings: for COX-2% (percentage of inhibition of COX-2): at 40 μg/mL; for inhibition at 40 µg/mL: read-out: COX-2% (percentage of inhibition of COX-2)
T1 sequence (P35354 18-604): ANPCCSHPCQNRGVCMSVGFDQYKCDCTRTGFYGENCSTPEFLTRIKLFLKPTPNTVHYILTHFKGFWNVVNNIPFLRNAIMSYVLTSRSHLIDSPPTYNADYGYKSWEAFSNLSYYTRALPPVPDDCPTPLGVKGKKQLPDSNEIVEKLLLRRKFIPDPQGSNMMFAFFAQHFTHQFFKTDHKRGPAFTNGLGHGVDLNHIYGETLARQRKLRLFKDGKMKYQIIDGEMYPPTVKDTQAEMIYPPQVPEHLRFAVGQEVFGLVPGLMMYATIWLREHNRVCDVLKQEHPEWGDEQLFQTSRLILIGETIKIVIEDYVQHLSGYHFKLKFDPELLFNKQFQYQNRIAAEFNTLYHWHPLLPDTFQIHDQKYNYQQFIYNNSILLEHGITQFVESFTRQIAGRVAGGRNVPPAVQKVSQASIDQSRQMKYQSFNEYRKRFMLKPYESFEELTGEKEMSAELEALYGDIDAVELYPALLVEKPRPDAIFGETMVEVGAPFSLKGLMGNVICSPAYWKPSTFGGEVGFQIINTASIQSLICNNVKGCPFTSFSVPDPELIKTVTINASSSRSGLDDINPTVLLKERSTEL

[1] = system: LPS-induced IL-6 in WI-38 fibroblast cells; assay: ELISA assay for IL-6 release in LPS-stimulated cells; type: cell-based; settings: for IL-6 (pg/ml)% (percentage of inhibition of IL-6): WI-38 cells, test compounds 10 µM, LPS 0.5 µg/mL, LPS alone = 100; for inhibition of IL-6 release (in words): LPS-stimulated WI-38 fibroblast cells
[2] = system: LPS-induced TNF-α in WI-38 fibroblast cells; assay: ELISA assay for TNF-α release in LPS-stimulated cells; type: cell-based; settings: for TNF-α (pg/ml)% (percentage of inhibition of TNF-α): WI-38 cells, test compounds 10 µM, LPS 0.5 µg/mL, LPS alone = 100; for inhibition of TNF-α release (in words): LPS-stimulated WI-38 fibroblast cells
[3] = read-out: COX-1 IC50 (μM ± SD), mean ± SD of triplicate experiments
[4] = read-out: COX-2 IC50 (μM ± SD), mean ± SD of triplicate experiments

Selectivity IC50 COX-1/IC50 COX-2 (human recombinant COX-1) [%]	IC50 (human recombinant COX-1) [µM]	inhibition at 40 µg/mL (human recombinant COX-1) [%]	IC50 (human recombinant COX-2) [µM]	inhibition at 40 µg/mL (human recombinant COX-2) [%]	Compound	further results
10	–	–	–	–	CC(=O)O[C@@H]1CC[C@@]2(C)[C@@H](CC[C@]3(C)[C@@H]2C(=O)C=C2[C@@H]4[C@@H](C)[C@H](C)CC[C@]4(C)CC[C@]23C)[C@@]1(C)C(=O)O [Acetyl-keto boswellic acid, reference compound]	COX-1% (percentage of inhibition of COX-1) (human recombinant COX-1): 71.42%; IC50 (human recombinant COX-1; [3]): 7.84 ± 0.13 µM; COX-2% (percentage of inhibition of COX-2) (human recombinant COX-2): 19.87%; IC50 (human recombinant COX-2; [4]): 82.52 ± 0.62 µM; IL-6 (pg/ml)% (percentage of inhibition of IL-6) [1]: 7.31%; TNF-α (pg/ml)% (percentage of inhibition of TNF-α) [2]: 18.76%
10	–	–	–	–	CC(=O)O[C@@H]1CC[C@@]2(C)[C@@H](CC[C@]3(C)[C@@H]2CC=C2[C@@H]4CC(C)(C)CC[C@]4(C)CC[C@]23C)[C@@]1(C)C(=O)O [Acetyl-α-boswellic acid, reference compound]	COX-1% (percentage of inhibition of COX-1) (human recombinant COX-1): 69.81%; IC50 (human recombinant COX-1; [3]): 10.1 ± 0.17 µM; COX-2% (percentage of inhibition of COX-2) (human recombinant COX-2): 7.98%; IC50 (human recombinant COX-2; [4]): > 100 µM; IL-6 (pg/ml)% (percentage of inhibition of IL-6) [1]: 15.73%; TNF-α (pg/ml)% (percentage of inhibition of TNF-α) [2]: 14.87%
11	–	–	–	–	CC(=O)O[C@@H]1CC[C@@]2(C)[C@@H](CC[C@]3(C)[C@@H]2CC=C2[C@@H]4[C@@H](C)[C@H](C)CC[C@]4(C)CC[C@]23C)[C@@]1(C)C(=O)O [Acetyl-β-boswellic acid, reference compound]	COX-1% (percentage of inhibition of COX-1) (human recombinant COX-1): 75.73%; IC50 (human recombinant COX-1; [3]): 8.16 ± 0.1 µM; COX-2% (percentage of inhibition of COX-2) (human recombinant COX-2): 14.87%; IC50 (human recombinant COX-2; [4]): 72.52 ± 0.51 µM; IL-6 (pg/ml)% (percentage of inhibition of IL-6) [1]: 11.42%; TNF-α (pg/ml)% (percentage of inhibition of TNF-α) [2]: 19.87%
–	–	–	–	–	Cc1ccc(-c2cc(C(F)(F)F)nn2-c2ccc(S(N)(=O)=O)cc2)cc1 [Celecoxib, reference compound]	IL-6 (pg/ml)% (percentage of inhibition of IL-6) ([1]; 10 µM): 24.77%
23	20.4 ± 0.55	57.4	88.1 ± 1.78	11.2	O=C(c1ccccc1)C1C(c2cc3ccccc3o2)C2CSCN2[C@@]12C(=O)Nc1ccc(Cl)cc12 (stereo partly drawn) [Compound 5a, (3S)-7'-(Benzofuran-2-yl)-6'-benzoyl-5-chloro-1',6',7',7a'-tetrahydro-3'H-spiro[indoline-3,5'-pyrrolo[1,2-c]thiazol]-2-one]	–
49	37 ± 1.54	40.8	76.2 ± 1.46	8.33	O=C(c1ccc(F)cc1)C1C(c2cc3ccccc3o2)C2CSCN2[C@@]12C(=O)Nc1ccc(Cl)cc12 (stereo partly drawn) [Compound 5c, (3S)-7'-(Benzofuran-2-yl)-5-chloro-6'-(4-fluorobenzoyl)-1',6',7',7a'-tetrahydro-3'H-spiro[indoline-3,5'-pyrrolo[1,2-c]thiazol]-2-one]	–
–	–	19.8	–	7.77	O=C(c1ccc(F)cc1)C1C(c2cc3ccccc3o2)C2C3CCCCC3CN2[C@@]12C(=O)Nc1ccc(Cl)cc12 (stereo partly drawn) [Compound 5d, (3S)-1'-(benzofuran-2-yl)-5-chloro-2'-(4-fluorobenzoyl)-1',2',5',5a',6',7',8',9',9a',9b'-decahydrospiro-[indoline-3,3'-pyrrolo[2,1-a]isoindol]-2-one]	inhibition of IL-6 release (in words) [1]: markedly inhibited; also recorded: most effective; also recorded: high potency; inhibition of TNF-α release (in words) [2]: markedly inhibited; also recorded: most effective; also recorded: high potency
–	–	9.43	–	1.8	O=C(c1ccc(F)cc1)C1C(c2cc3ccccc3o2)C2C3CCCCC3CN2[C@@]12C(=O)Nc1ccc(Br)cc12 (stereo partly drawn) [Compound 5e, (3S)-1'-(Benzofuran-2-yl)-5-bromo-2'-(4-fluorobenzoyl)-1',2',5',5a',6',7',8',9',9a',9b'-decahydrospiro-[indoline-3,3'-pyrrolo[2,1-a]isoindol]-2-one]	inhibition of IL-6 release (in words) [1]: markedly inhibited; also recorded: most effective; also recorded: high potency; inhibition of TNF-α release (in words) [2]: markedly inhibited; also recorded: most effective; also recorded: high potency
–	–	32.1	–	5.92	O=C(c1ccc(Br)cc1)C1C(c2cc3ccccc3o2)C2C3CCCCC3CN2[C@@]12C(=O)Nc1ccc(Cl)cc12 (stereo partly drawn) [Compound 5f, (3S)-1'-(Benzofuran-2-yl)-2'-(4-bromobenzoyl)-5-chloro-1',2',5',5a',6',7',8',9',9a',9b'-decahydrospiro-[indoline-3,3'-pyrrolo[2,1-a]isoindol]-2-one]	inhibition of IL-6 release (in words) [1]: markedly inhibited; also recorded: most effective; also recorded: high potency; inhibition of TNF-α release (in words) [2]: markedly inhibited; also recorded: most effective; also recorded: high potency
–	–	19.8	–	2.76	O=C(c1ccc(Br)cc1)C1C(c2cc3ccccc3o2)C2C3CCCCC3CN2[C@@]12C(=O)Nc1ccc(Br)cc12 (stereo partly drawn) [Compound 5g, (3S)-1'-(Benzofuran-2-yl)-5-bromo-2'-(4-bromobenzoyl)-1',2',5',5a',6',7',8',9',9a',9b'-decahydrospiro-[indoline-3,3'-pyrrolo[2,1-a]isoindol]-2-one]	inhibition of IL-6 release (in words) [1]: markedly inhibited; also recorded: most effective; also recorded: high potency; inhibition of TNF-α release (in words) [2]: markedly inhibited; also recorded: most effective; also recorded: high potency
42	35.7 ± 0.51	41.7	84.7 ± 1.16	9.8	O=C(c1ccc(Br)cc1)C1C(c2cc3ccccc3o2)C2CSCN2[C@@]12C(=O)Nc1ccc(Br)cc12 (stereo partly drawn) [Compound 5h, (3S)-7'-(Benzofuran-2-yl)-5-bromo-6'-(4-bromobenzoyl)-1',6',7',7a'-tetrahydro-3'H-spiro[indoline-3,5'-pyrrolo[1,2-c]thiazol]-2-one]	–
41	29.55 ± 0.19	44.5	71.2 ± 1.29	17.9	O=C(c1ccc(Br)cc1)C1C(c2cc3ccccc3o2)C2CSCN2[C@@]12C(=O)Nc1ccc(Cl)cc12 (stereo partly drawn) [Compound 5i, (3S)-7'-(Benzofuran-2-yl)-6'-(4-bromobenzoyl)-5-chloro-1',6',7',7a'-tetrahydro-3'H-spiro[indoline-3,5'-pyrrolo[1,2-c]thiazol]-2-one]	–
–	–	12.3	–	4.45	O=C(c1ccc(C(F)(F)F)cc1)C1C(c2cc3ccccc3o2)C2C3CCCCC3CN2[C@@]12C(=O)Nc1ccc(Br)cc12 (stereo partly drawn) [Compound 5k, (3S)-1'-(Benzofuran-2-yl)-5-bromo-2'-(4-(trifluoromethyl)benzoyl)-1',2',5',5a',6',7',8',9',9a',9b'-decahydro-spiro[indoline-3,3'-pyrrolo[2,1-a]isoindol]-2-one]	inhibition of IL-6 release (in words) [1]: markedly inhibited; also recorded: most effective; also recorded: high potency; inhibition of TNF-α release (in words) [2]: markedly inhibited; also recorded: most effective; also recorded: high potency
–	31.25 ± 0.24	47.7	58.8 ± 1.58	19.8	O=C(c1ccc(C(F)(F)F)cc1)C1C(c2cc3ccccc3o2)C2CSCN2[C@@]12C(=O)Nc1ccc(Cl)cc12 (stereo partly drawn) [Compound 5l, (3S)-7'-(Benzofuran-2-yl)-5-chloro-6'-(4-(trifluoromethyl)benzoyl)-1',6',7',7a'-tetrahydro-3'H-spiro-[indoline-3,5'-pyrrolo[1,2-c]thiazol]-2-one]	–
45	38.2 ± 0.96	52.8	85.7 ± 1.51	9.98	O=C(c1ccc(Cl)cc1)C1C(c2cc3ccccc3o2)C2CSCN2[C@@]12C(=O)Nc1ccc(Cl)cc12 (stereo partly drawn) [Compound 5p, (3S)-7'-(Benzofuran-2-yl)-5-chloro-6'-(4-chlorobenzoyl)-1',6',7',7a'-tetrahydro-3'H-spiro[indoline-3,5'-pyrrolo[1,2-c]thiazol]-2-one]	–
–	–	87.3	–	–	COc1ccc2c(c1)c(CC(=O)O)c(C)n2C(=O)c1ccc(Cl)cc1 [Indomethacin, reference compound]	–
18	18.1 ± 0.42	64.8	> 100	7.66	C[C@H]1[C@H](C)CC[C@]2(C)CC[C@]3(C)C(=CC[C@@H]4[C@@]5(C)CC[C@@H](O)[C@](C)(C(=O)O)[C@@H]5CC[C@]43C)[C@H]12 [β-Boswellic acid, reference compound]	–
